Results published in the SangsterLogP compilation.

Key:
[1] = method code SF-AS/IM, from DOI: 10.1002/jps.2600661205, PMID: 925928
[2] = method code SF-AS, from PMID: 17401091; conditions: pH 7.4
[3] = method code SF-NMR, from DOI: 10.1016/j.jpba.2012.12.010, PMID: 23298914; conditions: pH 7.6
[4] = method code SF-AS, from DOI: 10.1081/jlc-100100410; conditions: pH 4.0
[5] = method code SF-GLC, from Jha, T.; Debnath, A.; Mazumdar, A.; Sengupta, C.; De, A. (1986). Hansch analysis of antineoplastic agents, 5-N-substituted-2-p-substituted benzenesulfonyl-L-glutamines. Ind. J. Chem., Sect. B, …
[6] = method code SF-AS, from DOI: 10.1128/aac.27.1.84, PMID: 2580479
[7] = not given; remark: listed apart in the source
[8] = method code SF-HPLC, from DOI: 10.1021/jm300631e, PMID: 22734650; conditions: pH 7.4
[9] = method code SF-FL, from DOI: 10.1248/cpb.27.638, PMID: 554741
[10] = method code SF-FL, from DOI: 10.1002/jps.2600810104, PMID: 1352350
[11] = method code SF-ILT, from DOI: 10.1002/ardp.19763091008, PMID: 1008678
[12] = method code SF-HPLC, from DOI: 10.1023/a:1007514121527, PMID: 10714601; conditions: pH 7.4
[13] = method code SF-RC, from DOI: 10.1016/s0969-8051(01)00199-8, PMID: 11395310; conditions: pH 7.4
[14] = method code SF-HPLC, from DOI: 10.1248/cpb.32.1929; conditions: pH 7.2
[15] = method code SF-AS, from DOI: 10.1016/j.ejmech.2010.07.027, PMID: 20705371
[16] = method code SF-AS, from DOI: 10.3109/00498258909043190, PMID: 2618089; conditions: pH 10.8
[17] = not given; remark: listed apart in the source
[18] = method code SF, from DOI: 10.1021/jm061062o.s001, PMID: 17326614; conditions: pH 7.4
[19] = method code SF, from DOI: 10.1016/j.ejps.2016.06.024, PMID: 27373604; conditions: pH 7.4
[20] = method code SF, from DOI: 10.1016/s0006-3495(89)82875-9, PMID: 2470429; conditions: pH 7.3
[21] = not given; remark: listed apart in the source
[22] = not given; remark: listed apart in the source
[23] = not given; remark: listed apart in the source
[24] = not given; remark: listed apart in the source
[25] = not given; remark: listed apart in the source
[26] = not given; remark: listed apart in the source
[27] = method code SF-HPLC, from DOI: 10.1023/a:1013643013244, PMID: 11837695; conditions: pH 6.4
[28] = method code SF-AS, from DOI: 10.1016/s0022-3565(25)32601-7, PMID: 7194909
[29] = method code SF-AS, from Thiel, W. (1998). Structure and physicochemical properties of retigabine. Pharmazie, 53(12)865-868.; conditions: pH 7.4
[30] = method code SF, from DOI: 10.1016/j.ejmech.2012.08.015, PMID: 22960698
[31] = method code SF-AS, from Galdino, S.; Pitta, I.; Luc-Duc, C. (1986). 5-Benzylidene pyrrolones, furanones and thiopenones. II. Quantitative structure-antifungal correlation. Farmaco [Sci], 41(1)59-68.
[32] = method code SF-AS, from DOI: 10.1021/js960093b, PMID: 8897274; conditions: pH 7.4
[33] = method code SF-RC, from DOI: 10.1016/j.nucmedbio.2011.12.002, PMID: 22321533
[34] = method code SF, from DOI: 10.1016/s0223-5234(03)00044-8, PMID: 12750026; conditions: pH 7.4
[35] = method code SF-HPLC, from DOI: 10.1016/s0021-9673(99)01336-9, PMID: 10757301
[36] = method code SF-RC, from DOI: 10.1016/j.bmc.2013.04.077, PMID: 23712084; conditions: pH 7.4
[37] = method code SF, from DOI: 10.1016/j.ijpharm.2011.07.043, PMID: 21839822; conditions: pH 7.4
[38] = method code SF-AS, from DOI: 10.1007/bf00500291, PMID: 4270072; conditions: pH 7.4
[39] = not given; remark: listed apart in the source
[40] = not given; remark: listed apart in the source
[41] = method code SF, from Tomlin, C. (2000). The Pesticide Manual (12th Edition) British Crop Protection Council, Bracknell.
[42] = method code SF-RC, from DOI: 10.1021/acs.jmedchem.6b00849, PMID: 27690428; conditions: pH 7.4
[43] = not given; remark: listed apart in the source

CC1(C)S[C@@H]2[C@H](NC(=O)COc3ccccc3)C(=O)N2[C@H]1C(=O)O
logP [1]: 1.95

CN(C)c1ncc(C=Cc2nc3ccc(OCCF)cc3o2)s1
logD [2]: 1.75

COC(=O)C(N)Cc1cc(I)c(Oc2ccc(O)c(I)c2)c(I)c1 (centres undefined)
logD [3]: 2.6

CC(C)Oc1ccc(C(=O)NS(=O)(=O)c2ccc(N)cc2)cc1
logD [4]: 1.21

CCCNC(=O)CCC(NS(=O)(=O)c1ccc(C)cc1)C(=O)O (centres undefined)
logP [5]: 0.13

O=C(O)Cc1ccc2c(c1)C(=O)c1ccccc1CS2
logP: 2.97

CO[C@@]1(NC(=O)CSCC#N)C(=O)N2C(C(=O)O)=C(CSc3nnnn3C)CS[C@@H]21
logP [6]: -0.6

CCOP(=S)(NC(C)C)Oc1ccccc1C(=O)OC(C)C (centres undefined)
logP [7]: 3.7

C=CCC1(c2cccc(C3(C(F)(F)F)N=N3)c2)C(=O)NC(=O)N(C)C1=O (centres undefined)
logD [8]: 3.79

c1ccc(Nc2cccc3ccccc23)cc1
logP [9]: 4.2

CN1CCN=C(c2ccccc2)c2cc(Cl)ccc21
logP [10]: 3.3

CCNC(=O)C1C2C=CC(C2)C1C(=O)N(CC)CC (centres undefined)
logP [11]: 0.99

COc1cc2oc(=O)cc(CC(NC(C)=O)C(N)=O)c2cc1OC (centres undefined)
logD [12]: -0.13

CCN1CCC[C@H]1CNC(=O)c1c(OC)ccc(I)c1O
logD [13]: 2.85

COC(COC(N)=O)C1=C(N2CC2)C(=O)C(C)=C(N2CC2)C1=O (centres undefined)
logD [14]: 0

CC(C)(C)c1ccc(O)c(CN2CCOCC2)c1
logP [15]: 1.96

O=C(Cn1c(=O)sc2ccc(Cl)cc21)N1CCN(CCO)CC1
logD [16]: 1.04

CC(C)(C)C(O)[C@H](Cc1ccc(Cl)cc1)n1cncn1 (stereo in doubt)
logP [17]: 3.26

CS(=O)(=O)CCN(CCBr)c1cc(C(=O)NCC(O)CO)c([N+](=O)[O-])cc1[N+](=O)[O-] (centres undefined)
logD [18]: -0.05

NC(=O)C1c2ccccc2CCc2ccccc21
logD [19]: 1.67

COC(=O)C1=C(C)NC(C)=C([N+](=O)[O-])C1c1ccccc1C(F)(F)F (centres undefined)
logD [20]: 2.46

COc1ccc(C(=O)NNC(=O)c2ccc(OC)cc2)cc1
logP [21]: 1.55

CCN1C=CC(=C2C(=O)c3ccc(Cl)cc3C2=O)C=C1
logP [22]: 2.76

CCc1cccc(C)c1N(C(=O)CCl)C(C)COC (centres undefined)
logP [23]: 3.09

c1cc2ccc1CCc1ccc(cc1)CC2
logP [24]: 4.61

Cc1ccc2oc(-c3ccccc3C(=O)O)c(Br)c2c1
logP [25]: 5.19

CN(C)Cc1ccccc1Sc1ccc(I)cc1CO
logP [26]: 2.67

CCCN1C(=O)CCC(N2C(=O)c3ccccc3C2=O)C1=O (centres undefined)
logD [27]: 2.11

OC1(c2ccc(Cl)cc2)c2ccccc2C2=NCCN21 (centres undefined)
logP [28]: 1.81

CCOC(=O)Nc1ccc(NCc2ccc(F)cc2)cc1N
logD [29]: 2.17

O=C(CC1OC(=O)c2ccccc21)c1ccc(Cl)c(Cl)c1 (centres undefined)
logP [30]: 4.24

CCOC(=O)C1=C(C)O/C(=C\c2ccc(OC)cc2)C1=O
logP [31]: 2.96

N#CN=C1NC(=O)C(c2ccccc2)(c2ccccc2)N1
logD [32]: 1.16

Cc1cn(C2CC(O)C(CO)O2)c(=O)n(Cc2cn(CCF)nn2)c1=O (centres undefined)
logP [33]: -1.22

CNC(=O)Oc1ccc2c(c1)C1(C)CCN(C)C1N2C (centres undefined)
logD [34]: 0.97

CO/N=C(\C(=O)N[C@@H]1C(=O)N2C(C(=O)O)=C(COC(N)=O)CS[C@H]12)c1ccco1
logP [35]: -0.17

O=C(NCCCCCF)Oc1cccc(C2=NCCO2)c1
logD [36]: 2.33

CCCCCCCCNC(=O)c1ccccc1O
logD [37]: 3.7

CN1C(=O)CN=C(C2=CCCCC2)c2cc(Cl)ccc21
logD [38]: 2.76

O=C(O)Cc1ccc2c(c1O)C(=O)c1c(O)cccc1C2
logP [39]: 3.1

COc1ccc2c(c1)OCC2NC(=O)CN1CCCC1 (centres undefined)
logP [40]: 1.92

COCC(=O)N(c1c(C)cccc1C)C(C)C(=O)OC (racemic)
logP [41]: 1.75

N#Cc1ccc(N(Cc2ccc(I)cc2)n2cnnc2)cc1
logD [42]: 2.48

Cc1nc(N)nc(N)c1C12CC3CC(CC(C3)C1)C2
logP [43]: 2.64
